A short description of this series: Acute toxicity test. The settings on record: mouse, in vivo. As for the experimental part:
With 4 to 5 ddy-strain male mice of 6 weeks old as one group, the compound of the present invention was orally administered as a suspension in 1% tragacanth solution, and observation was conducted for 7 days and the number of dead mice was examined to obtain the results shown in Table 3.

SMILES strings stand for the structures. Where a name gives a salt, the structure may show the parent alone.

Where the note is “oral, suspension in 1% tragacanth, male ddy mice, 6 weeks old, observed for 7 days”, `O=C(O)C=CC(=O)Nc1cccc(C=Cc2ccc3ccccc3n2)c1` [compound 45] had an LD50 at 168 h greater than 1000 mg/kg. In turn, `O=C(O)CCC(=O)Nc1cccc(/C=C/c2ccc3ccccc3n2)c1` [compound 32, 2-[trans-3-(3-carboxypropanamide)styryl]quinoline.sodium salt] yielded a 50% lethal dose (LD50) at 168 h (po) greater than 1000 mg/kg.

The values above are taken from patent US4749701A, “Aminostyryl compound, leukotriene antagonistic composition containing the same as effective ingredients and method of antagonizing SRS by employing the same” (Mitsubishi Chemical Industries Limited, priority 1986, dated 1988).
